Results taken from article PMC5577105, “A New Chimeric Natriuretic Peptide, CNAAC, for the Treatment of Left Ventricular Dysfunction after Myocardial Infarction” (Scientific Reports, 2017).

Tests used:
[1] = system: myocardial infarction rats (left anterior descending coronary artery ligation); experiment: Cardiac hemodynamics after myocardial infarction; format: in vivo, rat; conditions: MI rats, NP 20 nmol/kg i.p. every 2 days for 4 weeks, anesthetized, LV catheter, mean ± SEM, n = 6; for +dp/dtmax / −dp/dtmax: in mmHg/s
Experimental: (§1) The Sham and MI animal model were established as described by Johns TN et al.[24], [25] […] The chest was closed immediately. Only a thoracotomy and closure were performed in the sham group. From the day of surgery, 0.85% NaCl or NPs (20 nmol/kg) were administered to these groups (i.p), one injection every two days and lasted for four weeks. Four weeks later, the cardiac function was measured by Doppler echocardiography under anesthesia with pentobarbital sodium (40 mg/kg i.p.). A 12 MHz linear probe (Vevo2100, VisualSonics, Inc., CAN) was used to perform the transthoracic echocardiography. Left ventricular (LV) ejection fraction (EF), LV fraction shortening (FS), LV end diastolic diameter (LVEDd), and left ventricular end systolic diameter (LVESd) were measured. All examinations were performed in a blinded state.
(§2) The day after echocardiography was performed; rats in each group were weighed and anesthetized via a peritoneal injection of pentobarbital sodium (40 mg/kg i.p.). Supplemental doses of sodium pentobarbital were given when needed to maintain uniform anesthesia. A micro catheter was inserted into the left ventricle through the right […], and left ventricular systolic pressure (LVSP), left ventricular end diastolic pressure (LVEDP), and ± dp/dtmax were recorded by the BL-420F BioData Acquisition & Analysis Systems (TME Technology Co, Ltd, Chengdu, China). At the end of the experiment, blood was sampled and the following parameters were recorded: heart weight (HW), left ventricle weight (LVW), and lung weight (LW).

[2] = rat, in vivo, iv
Experimental: To determine the metabolic status of NPs in circulation, blood was collected from rats after a bolus injection of NPs. Rats were anesthetized with pentobarbital sodium (40 mg/kg i.p). One microcatheter was inserted into the left jugular vein to administer NPs, and another one was inserted into the right carotid artery to collect blood. After the surgery was completed, rats were allowed to stabilize for 15 min. Human ANP, CNP, VNP, or CNAAC at a concentration of 40 nmol/kg was administered in a bolus fashion (0.1 ml). Blood (0.5 ml) was sampled 5, 10, 20, and 30 min after the bolus injection. The samples from the plasma were analyzed using LT-20AT High-Performance-Liquid-Chromatography (HPLC) (Shimadzu, Tokyo, Japan). A linear gradient (Buffer A: acetonitrile with 0.05% trifluoroacetic acid; Buffer B: double distilled water with 0.05% trifluoroacetic acid)[36] was used for both analyses to separate peptides on an Inertsil OSD-3 (250 mm × 4.6 mm, 5 µm) chromatographic column (Shimadzu, Tokyo, Japan) and a Water Quatro-premier tandem quadrupole mass spectrometry and Alliance 2695 chromatographic system (Waters, Milford, Massachusetts, USA). Peak areas have been calculated with the Masslynx 4.1 software from Waters. […] Each experiment was conducted in duplicate, whereby duplicates are defined as two different vials.

[3] = system: myocardial infarction rats (left anterior descending coronary artery ligation); experiment: Serum humoral factors by ELISA after myocardial infarction; format: in vivo; conditions: NP 20 nmol/kg i.p. every 2 days for 4 weeks, rat ELISA, n = 6
Experimental: as §1, with “0.85% NaCl; 20 nmol/kg·2d; n = 6). The Sham” for “The Sham”, “blinded state. Blood samples were centrifuged (4000 rpm, 15 min) and the serum was separated. Serum BNP, Ang II, ALD, ET-1, cGMP levels were detected with rat ELISA kits (Lianshuo, Shanghai, China).” for “blinded state.”

[4] = system: myocardial infarction rats (left anterior descending coronary artery ligation); experiment: Tissue weights / cardiac hypertrophy after myocardial infarction; format: in vivo, rat; conditions: MI rats, NP 20 nmol/kg i.p. every 2 days for 4 weeks; mean ± SEM, n = 6
Experimental: as §1, §2

[5] = parameters: method as in PMID 18205700; conditions: in circulation; cited from earlier work

| Substance | Heart rate [1] [bpm] | LVEDP [1] [mm Hg] | LVSP [1] [mm Hg] | +dp/dtmax [1] | −dp/dtmax [1] | NP remaining at 10 min [2] [%] | NP remaining at 20 min [2] | NP remaining at 30 min [2] | serum level of ALD, change vs. MI group [3] | serum level of Ang II, change vs. MI group [3] | serum level of ET-1, change vs. MI group [3] | serum level of cGMP, change vs. MI group [3] | BW (body weight) [4] [g] | HW (heart weight) [4] [mg] | LVW (left ventricular weight) [4] [mg] | LW (lung weight) [4] [mg] | circulating half-life [5] |
| --- | --- | --- | --- | --- | --- | --- | --- | --- | --- | --- | --- | --- | --- | --- | --- | --- | --- |
| atrial natriuretic peptide [ANP] | 437 ± 15 | 7.2 ± 1.8 | 112.5 ± 3.9 | 3651 ± 320 | 3424 ± 453 | 32.7 | Less than 10% | completely degraded | decreased | decreased | decreased | increased | 362 ± 8 | 1010 ± 39 | 492 ± 24 | 2094 ± 188 | – |
| brain natriuretic peptide [BNP] | – | – | – | – | – | – | – | – | – | – | – | – | – | – | – | – | approximately 23 min |
| C-type natriuretic peptide [CNP] | 443 ± 21 | 6.5 ± 1.5 | 122.7 ± 4.8 | 4025 ± 289 | 3917 ± 250 | – | – | – | – | decreased | decreased | increased | 347 ± 10 | 1072 ± 84 | 492 ± 24 | 2190 ± 149 | – |
